In PubChem BioAssay (NCI):
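GI50 = concentration required for 50% inhibition of growth. The concentration for full growth arrest is given as TGI.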

Key:
Assay in all cases: DTP human tumour cell line panel, 384-well format
PC-3 prostate = test system: PC-3 prostate
SR leukemia = test system: SR leukemia
SK-OV-3 ovarian = test system: SK-OV-3 ovarian
HOP-62 NSCLC = test system: HOP-62 NSCLC
A549 NSCLC = test system: A549 NSCLC
SW-620 colon = test system: SW-620 colon
COLO 205 colon = test system: COLO 205 colon
UACC-257 melanoma = test system: UACC-257 melanoma
OVCAR-8 ovarian = test system: OVCAR-8 ovarian
M14 melanoma = test system: M14 melanoma
IGROV1 ovarian = test system: IGROV1 ovarian
MOLT-4 leukemia = test system: MOLT-4 leukemia
BT-549 breast = test system: BT-549 breast
RPMI-8226 leukemia = test system: RPMI-8226 leukemia
MDA-MB-231 breast = test system: MDA-MB-231 breast
HCT-15 colon = test system: HCT-15 colon
KM12 colon = test system: KM12 colon
LOX IMVI melanoma = test system: LOX IMVI melanoma
HL-60(TB) leukemia = test system: HL-60(TB) leukemia
HS 578T breast = test system: HS 578T breast
ACHN renal = test system: ACHN renal
SNB-19 CNS = test system: SNB-19 CNS
DU-145 prostate = test system: DU-145 prostate
HOP-92 NSCLC = test system: HOP-92 NSCLC
CAKI-1 renal = test system: CAKI-1 renal
NCI-H322M lung = test system: NCI-H322M lung
SN12C renal = test system: SN12C renal
TK-10 renal = test system: TK-10 renal
SF-268 CNS = test system: SF-268 CNS
HCT-116 colon = test system: HCT-116 colon
NCI-H460 NSCLC = test system: NCI-H460 NSCLC
SK-MEL-5 melanoma = test system: SK-MEL-5 melanoma
786-0 renal = test system: 786-0 renal
NCI-H226 lung = test system: NCI-H226 lung
UACC-62 melanoma = test system: UACC-62 melanoma
CCRF-CEM leukemia = test system: CCRF-CEM leukemia
NCI-H522 lung = test system: NCI-H522 lung
RXF 393 renal = test system: RXF 393 renal
UO-31 renal = test system: UO-31 renal
NCI/ADR-RES ovarian = test system: NCI/ADR-RES ovarian
T-47D breast = test system: T-47D breast
SK-MEL-28 melanoma = test system: SK-MEL-28 melanoma
U251 glioblastoma = test system: U251 glioblastoma
HCC-2998 colon = test system: HCC-2998 colon
OVCAR-5 ovarian = test system: OVCAR-5 ovarian
NCI-H23 lung = test system: NCI-H23 lung
SF-539 CNS = test system: SF-539 CNS
A498 renal = test system: A498 renal
MDA-MB-435 melanoma = test system: MDA-MB-435 melanoma
MDA-MB-468 breast = test system: MDA-MB-468 breast
EKVX NSCLC = test system: EKVX NSCLC
SNB-75 CNS = test system: SNB-75 CNS
OVCAR-4 ovarian = test system: OVCAR-4 ovarian
OVCAR-3 ovarian = test system: OVCAR-3 ovarian
SF-295 CNS = test system: SF-295 CNS
MCF7 breast = test system: MCF7 breast
MALME-3M melanoma = test system: MALME-3M melanoma

SMILES: COc1cc2ncnc(Nc3ccc(F)c(Cl)c3)c2cc1NC(=O)/C=C/CN1CCCCC1
- GI50 (PC-3 prostate): 1.67 µM
- TGI (PC-3 prostate): 3.18 µM
- GI50 (SR leukemia): 0.883 µM
- TGI (SR leukemia): 2.21 µM
- GI50 (SK-OV-3 ovarian): 0.619 µM
- TGI (SK-OV-3 ovarian): 5.93 µM
- GI50 (HOP-62 NSCLC): 4.21 µM
- TGI (HOP-62 NSCLC): 5.84 µM
- GI50 (A549 NSCLC): 3.31 µM
- TGI (A549 NSCLC): 4.86 µM
- GI50 (SW-620 colon): 1.62 µM
- TGI (SW-620 colon): 3.02 µM
- GI50 (COLO 205 colon): 4.04 µM
- TGI (COLO 205 colon): 5.48 µM
- GI50 (UACC-257 melanoma): 1.63 µM
- TGI (UACC-257 melanoma): 3.08 µM
- GI50 (OVCAR-8 ovarian): 3.43 µM
- TGI (OVCAR-8 ovarian): 4.92 µM
- GI50 (M14 melanoma): 1.74 µM
- TGI (M14 melanoma): 3.14 µM
- GI50 (IGROV1 ovarian): < 0.0273 µM
- TGI (IGROV1 ovarian): 1.56 µM
- GI50 (MOLT-4 leukemia): 0.803 µM
- TGI (MOLT-4 leukemia): 2.19 µM
- GI50 (BT-549 breast): 1.01 µM
- TGI (BT-549 breast): 2.43 µM
- GI50 (RPMI-8226 leukemia): 1.51 µM
- TGI (RPMI-8226 leukemia): 2.85 µM
- GI50 (MDA-MB-231 breast): 1.23 µM
- TGI (MDA-MB-231 breast): 2.49 µM
- GI50 (HCT-15 colon): 1.18 µM
- TGI (HCT-15 colon): 4.17 µM
- GI50 (KM12 colon): 2.05 µM
- TGI (KM12 colon): 4.37 µM
- GI50 (LOX IMVI melanoma): 2.54 µM
- TGI (LOX IMVI melanoma): 5.01 µM
- GI50 (HL-60(TB) leukemia): 0.973 µM
- TGI (HL-60(TB) leukemia): 2.34 µM
- GI50 (HS 578T breast): 0.951 µM
- TGI (HS 578T breast): 2.81 µM
- TGI (ACHN renal): 1.87 µM
- GI50 (SNB-19 CNS): 2.09 µM
- TGI (SNB-19 CNS): 6.56 µM
- GI50 (DU-145 prostate): 0.395 µM
- TGI (DU-145 prostate): 2.14 µM
- GI50 (HOP-92 NSCLC): 1.16 µM
- TGI (HOP-92 NSCLC): 2.4 µM
- GI50 (CAKI-1 renal): 0.618 µM
- TGI (CAKI-1 renal): 2.14 µM
- GI50 (NCI-H322M lung): < 0.0221 µM
- TGI (NCI-H322M lung): 0.15 µM
- GI50 (SN12C renal): 0.595 µM
- TGI (SN12C renal): 2.24 µM
- GI50 (TK-10 renal): < 0.0192 µM
- TGI (TK-10 renal): 3.92 µM
- GI50 (SF-268 CNS): 1.68 µM
- TGI (SF-268 CNS): 4.33 µM
- GI50 (HCT-116 colon): 1.57 µM
- TGI (HCT-116 colon): 2.98 µM
- GI50 (NCI-H460 NSCLC): 1.72 µM
- TGI (NCI-H460 NSCLC): 3.41 µM
- GI50 (SK-MEL-5 melanoma): 1.6 µM
- TGI (SK-MEL-5 melanoma): 3.67 µM
- GI50 (786-0 renal): 0.784 µM
- TGI (786-0 renal): 2.29 µM
- GI50 (NCI-H226 lung): 3.53 µM
- TGI (NCI-H226 lung): 5 µM
- GI50 (UACC-62 melanoma): 1.59 µM
- TGI (UACC-62 melanoma): 2.96 µM
- GI50 (CCRF-CEM leukemia): 1.92 µM
- TGI (CCRF-CEM leukemia): 3.37 µM
- GI50 (NCI-H522 lung): < 0.0452 µM
- TGI (NCI-H522 lung): 0.946 µM
- GI50 (RXF 393 renal): 1.01 µM
- TGI (RXF 393 renal): 3.05 µM
- GI50 (UO-31 renal): 0.639 µM
- TGI (UO-31 renal): 2.2 µM
- GI50 (NCI/ADR-RES ovarian): 1.14 µM
- TGI (NCI/ADR-RES ovarian): 2.37 µM
- TGI (T-47D breast): 3.92 µM
- GI50 (SK-MEL-28 melanoma): 1.62 µM
- TGI (SK-MEL-28 melanoma): 2.98 µM
- GI50 (U251 glioblastoma): 4.09 µM
- TGI (U251 glioblastoma): 5.53 µM
- GI50 (HCC-2998 colon): 5.29 µM
- GI50 (OVCAR-5 ovarian): 1.66 µM
- TGI (OVCAR-5 ovarian): 5.04 µM
- GI50 (NCI-H23 lung): 3.17 µM
- TGI (NCI-H23 lung): 5.33 µM
- GI50 (SF-539 CNS): 1.65 µM
- TGI (SF-539 CNS): 3.03 µM
- GI50 (A498 renal): 0.471 µM
- TGI (A498 renal): 2.19 µM
- GI50 (MDA-MB-435 melanoma): 1.78 µM
- TGI (MDA-MB-435 melanoma): 3.26 µM
- GI50 (MDA-MB-468 breast): < 0.01 µM
- TGI (MDA-MB-468 breast): < 0.0199 µM
- TGI (EKVX NSCLC): 3.81 µM
- GI50 (SNB-75 CNS): 0.775 µM
- TGI (SNB-75 CNS): 3.01 µM
- GI50 (OVCAR-4 ovarian): 1.18 µM
- TGI (OVCAR-4 ovarian): 2.47 µM
- GI50 (OVCAR-3 ovarian): 0.586 µM
- TGI (OVCAR-3 ovarian): 2.04 µM
- GI50 (SF-295 CNS): 4.83 µM
- TGI (SF-295 CNS): 7.34 µM
- GI50 (MCF7 breast): 3.17 µM
- TGI (MCF7 breast): 4.96 µM
- GI50 (MALME-3M melanoma): 1.52 µM
- TGI (MALME-3M melanoma): 2.86 µM
